The values below are quoted from earlier work in patent US20210137911A1, “NOVEL CHRONOTHERAPY BASED ON CIRCADIAN RHYTHMS” (THE TRUSTEES OF THE UNIVERSITY OF PENNSYLVANIA, priority 2014, published 2021).

The conditions of the data set: cited from earlier work.
Setting [1] is: half-life of top selling therapeutic compounds (Table 1).
The mark [2] stands for this setting: half-life of therapeutic compound as listed in Table 1.

Like-named read-outs stand apart in the source and are kept apart here.

As to Interferon Alfa-2a, Recombinant, the “½ Life” value (in vivo) was 2 h.
Take `OC(CCN1CCCCC1)(c1ccccc1)C1CCCCC1` (stereo not shown) [Trihexyphenidyl]: the “½ Life” value (in vivo) is 3.3 h.
Take `CN(C)CCc1c[nH]c2ccc(CS(=O)(=O)N3CCCC3)cc12` [Almotriptan]: the “½ Life” value under setting [1] was 3 h.
As to `C[C@H]1C[C@H]2[C@@H]3CCC4=CC(=O)C=C[C@]4(C)[C@@]3(Cl)[C@@H](O)C[C@]2(C)[C@@]1(O)C(=O)CO` [Beclomethasone], the “½ Life” value (in vivo) was 2.8 h.
With `CC(C)CC(N(C)C)C1(c2ccc(Cl)cc2)CCC1` (stereo not shown) [Sibutramine], the “½ Life” value (in vivo) was 1.1 h.
For the molecule `COc1ccc(CC2c3cc(OC)c(OC)cc3CC[N+]2(C)CCC(=O)OCCCCCOC(=O)CC[N+]2(C)CCc3cc(OC)c(OC)cc3C2Cc2ccc(OC)c(OC)c2)cc1OC` (stereo not shown) [Atracurium], under setting [1], the “½ Life” value was 0.33 h.
Take `CCCCCCC(C)(C)c1cc(O)c2c(c1)OC(C)(C)C1CCC(=O)CC21` (stereo not shown) [Nabilone]: the “½ Life” value under setting [2] is 2 h.
Take `Cc1ccc(C)c(OCCCC(C)(C)C(=O)O)c1` [Gemfibrozil, reference compound]: the “½ Life” value under setting [2] is 1.5 h. Under “see Table 1”, the half-life entry was “one and a half”; the minimum reported half-life entry was “one and a half”.
For the molecule `COc1cc2c(cc1OC)[C@@H](Cc1cc(OC)c(OC)c(OC)c1)[N+](C)(CCCOC(=O)CC/C=C/CCC(=O)OCCC[N+]1(C)CCc3cc(OC)c(OC)cc3[C@H]1Cc1cc(OC)c(OC)c(OC)c1)CC2` (stereo partly shown) [Mivacurium], the “½ Life” value under setting [2] was 1.7 h.
Turning to `N[C@@H]1C[C@H]1c1ccccc1` (racemic) [Tranylcypromine], where the note is “in vivo”, the “½ Life” value is 1.5 h.
For `C[C@H]1O[C@H](O[C@H]2[C@H](O)[C@@H](O)[C@@H](O[C@H]3[C@H](O)[C@@H](O)C(O)O[C@@H]3CO)O[C@@H]2CO)[C@H](O)[C@@H](O)[C@@H]1N[C@H]1C=C(CO)[C@@H](O)[C@H](O)[C@H]1O` (stereo partly shown) [Acarbose], the “½ Life” value under setting [1] was 2 h.
As to `CC(C)C(=O)O[C@@H](OC(=O)NC[C@H](CC(=O)O)c1ccc(Cl)cc1)C(C)C` [Arbaclofen Placarbil], where the note is “in vivo”, the “½ Life” value is 0.1 h.
Regarding `O=C(Oc1ccccc1C(=O)O)c1ccccc1O` [Salsalate], the “½ Life” value (in vivo) is 1 h.
Turning to `NNc1nncc2ccccc12` [Hydralazine], the “½ Life” value under setting [2] was 3 h.
`Nc1cccc2c1CN(C1CCC(=O)NC1=O)C2=O` (stereo not shown) [Lenalidomide]: the “½ Life” value under setting [2] is 3 h.
As for `CC#CCC(C)[C@H](O)/C=C/[C@@H]1[C@H]2C/C(=C/CCCC(=O)O)C[C@H]2C[C@H]1O` (stereo partly shown) [Iloprost], under setting [2], the “½ Life” value is 0.333 h.
Turning to `O=C1NC(c2ccccc2)(c2ccccc2)C(=O)N1COP(=O)(O)O` [Fosphenytoin], under setting [1], the “½ Life” value was 0.25 h.
As for `C[C@@H]1C[C@H]2[C@@H]3CCC4=CC(=O)C=C[C@]4(C)[C@@]3(Cl)[C@@H](O)C[C@]2(C)[C@@]1(O)C(=O)CCl` [Mometasone], under setting [2], the “½ Life” value is 5.8 h.
For the molecule `COCc1c(C(C)C)nc(C(C)C)c(/C=C/[C@@H](O)C[C@@H](O)CC(=O)O)c1-c1ccc(F)cc1` [Cerivastatin, reference compound], the “½ Life” value under setting [1] was 2 h. Under “see Table 1”, the half-life result is “less than three”.
For Galsulfase, for the setting “in vivo”, the “½ Life” value was 0.15 h.
For the molecule `COC(=O)C(c1ccccc1)C1CCCCN1` (stereo not shown) [Methylphenidate], under “in vivo”, the “½ Life” value is 3 h.
Consider `Cc1nccn1CC1CCc2c(c3ccccc3n2C)C1=O` (stereo not shown) [Ondansetron], for which the “½ Life” value under setting [2] is 5.7 h.
With `CN[C@@H](C)Cc1ccccc1` [Methamphetamine], the “½ Life” value under setting [2] was 4 h.
In the case of `O=[N+]([O-])O[C@@H]1CO[C@H]2[C@@H]1OC[C@@H]2O` [Isosorbide Mononitrate], under setting [2], the “½ Life” value was 5 h.
Take `CC(C)[C@H]1CC[C@H](C(=O)N[C@H](Cc2ccccc2)C(=O)O)CC1` [Nateglinide]: the “½ Life” value under setting [2] was 1.5 h.
In the case of `CNC(=O)c1ccccc1Sc1ccc2c(/C=C/c3ccccn3)n[nH]c2c1` [Axitinib], under setting [1], the “½ Life” value was 2.5 h.
In the case of `CN(C)Cc1nnc2n1-c1ccc(Cl)cc1C(c1ccccc1)=NC2` [Adinazolam], the “½ Life” value (in vivo) is 3 h.
Regarding Rituximab, the “½ Life” value (in vivo) is 0.8 h.
In the case of Enoxaparin, the “½ Life” value (in vivo) is 4.5 h.
Turning to `CNC[C@H](O)c1cccc(O)c1` [Phenylephrine], under setting [2], the “½ Life” value is 2.1 h.
Consider `CNCCc1ccccn1` [Betahistine], for which the “½ Life” value under setting [1] is 3 h.
As for `O=C(O)c1cccnc1Nc1cccc(C(F)(F)F)c1` [Niflumic Acid], the “½ Life” value under setting [2] was 2.5 h.
For the molecule `C=CCN1CC[C@]23CCCC[C@H]2[C@H]1Cc1ccc(O)cc13` [Levallorphan], under setting [2], the “½ Life” value was 1 h.
`COc1ccc(Cl)cc1C(=O)NCCc1ccc(S(=O)(=O)NC(=O)NC2CCCCC2)cc1` [Glyburide]: the “½ Life” value under setting [2] is 1.4 h.
As to `OCc1cc(C(O)CNCCCCCCOCCCCc2ccccc2)ccc1O` (stereo not shown) [Salmeterol], the “½ Life” value (in vivo) was 5.5 h.
On to `CCOC(=O)[C@H](CCc1ccccc1)N[C@@H](C)C(=O)N1Cc2ccccc2C[C@H]1C(=O)O` [Quinapril], for which the “½ Life” value (in vivo) is 2 h.
On to `CN(C)/N=N/c1[nH]cnc1C(N)=O` [Dacarbazine], for which the “½ Life” value under setting [1] was 5 h.
For the molecule `COc1cc([C@@H]2c3cc4c(cc3[C@H](O)[C@H]3COC(=O)[C@H]23)OCO4)cc(OC)c1OC` [Podofilox], under setting [2], the “½ Life” value was 1 h.
Regarding Pegaptanib, the “½ Life” value (in vivo) is 3 h.
`CC(=O)c1ccc(S(=O)(=O)NC(=O)NC2CCCCC2)cc1` [Acetohexamide]: the “½ Life” value under setting [1] is 1.3 h.
With `CN1C(C(=O)Nc2ccccn2)=C(O)c2sc(Cl)cc2S1(=O)=O` [Lornoxicam], the “½ Life” value under setting [2] is 3 h.
With `CCOC(=O)C1(c2ccccc2)CCN(C)CC1` [Pethidine], the “½ Life” value (in vivo) is 1 h.
Regarding `Nc1nc(=O)[nH]cc1F` [Flucytosine], under setting [1], the “½ Life” value was 2.4 h.
Consider `CC(=O)N1N=C(c2ccc(N)cc2)c2cc3c(cc2C[C@H]1C)OCO3` [Talampanel], for which, under “in vivo”, the “½ Life” value is 3 h.
With `Nc1ccn([C@@H]2O[C@H](CO)[C@@H](O)C2(F)F)c(=O)n1` [Gemcitabine], under setting [2], the “½ Life” value is 0.7 h.
For `OCCN(CCO)c1nc(N2CCCCC2)c2nc(N(CCO)CCO)nc(N3CCCCC3)c2n1` [Dipyridamole], the “½ Life” value under setting [1] is 0.66 h.
On to `C[C@]12COC(=O)C[C@@H]1CC[C@@H]1[C@@H]2CC[C@@]2(C)[C@H]1CC[C@]2(C)O` [Oxandrolone], for which the “½ Life” value under setting [2] is 0.55 h.
Consider Denileukin diftitox, for which the “½ Life” value under setting [1] is 1.166 h.
Take `COc1cc2c3cc1Oc1cc(ccc1O)C[C@@H]1c4c(cc(OC)c(O)c4Oc4ccc(cc4)C[C@@H]3N(C)CC2)CC[N+]1(C)C` [Tubocurarine]: under “in vivo”, the “½ Life” value was 1 h.
As to `CC(=O)N1CCN(c2ccc(OCC3COC(Cn4ccnc4)(c4ccc(Cl)cc4Cl)O3)cc2)CC1` (stereo not shown) [Ketoconazole], the “½ Life” value under setting [2] was 2 h.
In the case of `Cc1ccc(=O)n(-c2ccccc2)c1` [Pirfenidone], the “½ Life” value under setting [2] is 2 h.
On to `C[C@@](Cc1ccc(O)c(O)c1)(NN)C(=O)O` [Carbidopa], for which the “½ Life” value under setting [1] is 1 h.
`CC[C@@H](c1cccc(O)c1)[C@@H](C)CN(C)C` [Tapentadol]: the “½ Life” value (in vivo) was 4 h.
On to `CN1C(=O)CC(C)(c2ccccc2)C1=O` (stereo not shown) [Methsuximide], for which the “½ Life” value under setting [2] is 1.4 h.
`CCCC(=O)Nc1ccc(OCC(O)CNC(C)C)c(C(C)=O)c1` (stereo not shown) [Acebutolol]: the “½ Life” value under setting [1] was 3 h.
Turning to `O=c1[nH]cc(F)c(=O)[nH]1` [Fluorouracil], the “½ Life” value under setting [1] was 0.166 h.
With `CCCC(C)C1(CC)C(=O)NC(=O)NC1=O` (stereo not shown) [Pentobarbital], the “½ Life” value (in vivo) was 5 h.
`CCOC(=O)[C@H](CCc1ccccc1)N[C@@H](C)C(=O)N1Cc2cc(OC)c(OC)cc2C[C@H]1C(=O)O` [Moexipril]: the “½ Life” value under setting [2] is 1 h.
Take `CC(C)c1cccc(C(C)C)c1O` [Propofol]: the “½ Life” value (in vivo) was 1 h.
`C[C@]12CC[C@H](O)CC1=CC[C@@H]1[C@@H]2CC[C@]2(C)C(c3cccnc3)=CC[C@@H]12` [Abiraterone]: the “½ Life” value under setting [1] was 5 h.
As to `COc1ccc(C[C@@H]2c3cc(OC)c(OC)cc3CC[N@+]2(C)CCC(=O)OCCCCCOC(=O)CC[N@@+]2(C)CCc3cc(OC)c(OC)cc3[C@H]2Cc2ccc(OC)c(OC)c2)cc1OC` [Cisatracurium Besylate], under setting [1], the “½ Life” value is 0.366 h.
Turning to `CCCC(C)C1(CC)C(=O)NC(=S)NC1=O` (stereo not shown) [Thiopental], the “½ Life” value (in vivo) is 3 h.
On to `NC(=O)CC[C@@H]1NC(=O)[C@H](Cc2ccccc2)NC(=O)[C@H](Cc2ccc(O)cc2)NC(=O)CCSSC[C@@H](C(=O)N2CCC[C@H]2C(=O)N[C@H](CCCN=C(N)N)C(=O)NCC(N)=O)NC(=O)[C@H](CC(N)=O)NC1=O` [Desmopressin], for which the “½ Life” value (in vivo) is 1 h.
Take `CN(C)CCc1c[nH]c2ccc(Cn3cncn3)cc12` [Rizatriptan]: for the setting “in vivo”, the “½ Life” value is 2 h.
Consider `CNS(=O)(=O)CCc1ccc2[nH]cc(C3CCN(C)CC3)c2c1` [Naratriptan], for which, under setting [2], the “½ Life” value is 5 h.
For `Cc1ccc(-c2nc3ccc(C)cn3c2CC(=O)N(C)C)cc1` [Zolpidem], the “½ Life” value (in vivo) is 2.6 h.
In the case of `CCN(CC)CCOC(=O)c1ccc(N)cc1` [Procaine], the “½ Life” value under setting [2] was 0.1283 h.
For the molecule `COc1ccccc1Oc1c(NS(=O)(=O)c2ccc(C(C)(C)C)cc2)nc(-c2ncccn2)nc1OCCO` [Bosentan], the “½ Life” value under setting [1] is 5 h.
For `CC[C@@H]1C(=O)OC[C@@H]1Cc1cncn1C` [Pilocarpine], under setting [2], the “½ Life” value is 0.76 h.
Take `CN1CC[C@]23c4c5ccc(O)c4O[C@H]2[C@@H](O)C=C[C@H]3[C@H]1C5` [Morphine]: for the setting “in vivo”, the “½ Life” value is 2 h.
As for `CCCCCOC(=O)Nc1nc(=O)n([C@@H]2O[C@H](C)[C@@H](O)[C@H]2O)cc1F` [Capecitabine], the “½ Life” value under setting [1] was 0.75 h.
Take `Cc1cnc(C(=O)NCCc2ccc(S(=O)(=O)NC(=O)NC3CCCCC3)cc2)cn1` [Glipizide]: under setting [2], the “½ Life” value is 2 h.
For the molecule `O=c1n(CCCN2CCN(c3cccc(Cl)c3)CC2)nc2ccccn12` [Trazodone], where the note is “in vivo”, the “½ Life” value is 1 h.
